The values that follow come from patent US5153194A, “Thienocycloheptapyridazine compounds and their pharmaceutical use” (Yoshitomi Pharmaceutical Industries, Ltd., priority 1988, dated 1992).

The target of data set [1] is benzodiazepine (BZP) receptors. In words: Displacement ability for benzodiazepine (displacement of tritiated diazepam). In kind it is binding, rat (male Wistar. The following applies: displacement of tritiated diazepam (2 nM), rat cerebral cortex synaptosomes, 0° C., 20 minutes, pH 7.4; read-out: Affinity to BZP Receptors, Ki. Here is the method: The experiment for specific affinity to benzodiazepine receptors was carried out in accordance with the method described in Life Science, vol. 20, 2101 (1977).
The crude cynaptosome fraction was isolated from the cerebral cortex of male Wistar rats aged 9-10 weeks, and was suspended in 50 mM Tris-hydrochloric acid buffer solution (pH 7.4) containing 120 mM sodium chloride and 5 mM potassium chloride. These suspensions were used for the experiment.
The test compounds in several different concentrations and tritiated diazepam (in final concentration of 2 nM) were added to the synaptosome suspensions, and the mixtures were incubated at 0° C. for 20 minutes. These suspensions were filtered with Whatman GF/B glassfiber filters. After the filters were washed with the above-mentioned buffer solution, the radioactivity left on the filters was measured with the use of a liquid scintillation counter.
Specific binding was determined by subtracting binding in the presence of 10^-6 M unlabelled diazepam from total binding.
According to the foregoing experimental method, the binding force to benzodiazepine receptors of the compound of the present invention is evaluated from its displacement ability for tritiated diazepam at its binding site, which is represented by Ki value (nM).

Data set [2] deals with amnesia-induced mice (electroconvulsive shock). In words: Action on experimental amnesia (ECS-induced amnesia, step-through passive avoidance). The format is in vivo, mouse (male ddY). The settings on record: 2.5 mg/kg (i.p.) or more, 30 minutes before acquisition trial; retention test 24 hours after. Here is the method:
Twenty male ddY mice were used per group to investigate the action of the test compounds on learning and memory ability of amnesia-induced mice by observing a step-through passive avoidance reflex. Amnesia-induced animals were prepared by applying electroconvulsive shock (ECS) soon after the acquisition trial and the retention test was carried out 24 hours after the acquisition trial. Test compounds were administered intraperitoneally (i.p.) 30 minutes before the acquisition trial.

Another data set deals with ddY mice. As to the kind of experiment: Acute toxicity. In kind it is in vivo, mouse (male ddY). The settings on record: 5 days. An excerpt:
Five male ddY mice were used per group.

For data set [3], the system named is tonic convulsion induced by (+) bicuculline. As to the kind of experiment: Anti-bicuculline action (bicuculline-induced tonic convulsion). The settings on record: Mus musculus; oral, 1 hour before (+) bicuculline 0.6 mg/kg i.v.; tonic convulsion within 5 minutes. In kind it is in vivo, mouse (male ddY). As for the experimental part:
The anti-bicuculline action test was carried out in accordance with the method described in Life Science, vol. 21, 1779 (1977).
Male ddY mice weighing 20-28 g, 7-14 animals per group, were used. One hour after the oral administration of the test compounds, (+) bicuculline was intravenously administered at the dosage of 0.6 mg/kg, and 50% effective concentration (ED50) was estimated by examining whether tonic convulsion within 5 minutes was caused or not.

The term Ki denotes a dissociation constant, usually derived from enzyme kinetics or from competition with a known ligand. As for `COc1ccc(N2N=C3c4cc(C)sc4CCCC3CC2=O)cc1` (stereo not shown) [Example 4, 2-(4-methoxyphenyl)-9-methyl-2,4,4a,5,6,7-hexahydro-3H-thieno[2',3':6,7]cyclohepta[1,2-c]pyridazin-3-one], the inhibitory constant (Ki) in data set [1] came to 1.1 nM. The “latency time in the trial of the retention test” value in data set [2] is “significantly prolonged the latency time”. In the data set on ddY mice (300 mg/kg i.p., five mice), the “survival, acute toxicity, intraperitoneal” value was “all mice survived for 5 days”. The “survival, acute toxicity, oral” value with ddY mice (1000 mg/kg oral) is reported as “survived for 5 days”.
One may read the ED50 as the dose that gives a 50% effect, or the effect in half of the subjects. Higher therefore signals weaker potency. `Cc1cc2c(s1)CCCC1CC(=O)N(c3ccc(Cl)cc3)N=C21` (stereo not shown) [Example 1, 2-(4-chlorophenyl)-9-methyl-2,4,4a,5,6,7-hexahydro-3H-thieno[2',3':6,7]cyclohepta[1,2-c]pyridazin-3-one]: the Ki in data set [1] is 4.8 nM. This molecule yielded an ED50 in data set [3] of 8.1 mg/kg.
The molecule `Cc1cc2c(s1)CCCc1cc(=O)n(-c3ccc(Cl)cc3)nc1-2` [Example 5, 2-(4-chlorophenyl)-2,5,6,7-tetrahydro-9-methyl-3H-thieno[2',3':6,7]cyclohepta[1,2-c]pyridazin-3-one] yielded an ED50 in data set [3] of 9.8 mg/kg.
